Test results taken from ChEMBL document CHEMBL3352461, “Discovery and optimization of 5-fluoro-4,6-dialkoxypyrimidine GPR119 agonists” (Bioorg Med Chem Lett, 2014).

Tests used:
[1] = biological target: T1, Glucose-dependent insulinotropic receptor (Homo sapiens, UniProt Q8TDV5); assay: […] of human GPR119 activity by homogeneous time resolved fluorescence cyclase (cAMP) assay; type: functional
T1 sequence (Q8TDV5 whole entry): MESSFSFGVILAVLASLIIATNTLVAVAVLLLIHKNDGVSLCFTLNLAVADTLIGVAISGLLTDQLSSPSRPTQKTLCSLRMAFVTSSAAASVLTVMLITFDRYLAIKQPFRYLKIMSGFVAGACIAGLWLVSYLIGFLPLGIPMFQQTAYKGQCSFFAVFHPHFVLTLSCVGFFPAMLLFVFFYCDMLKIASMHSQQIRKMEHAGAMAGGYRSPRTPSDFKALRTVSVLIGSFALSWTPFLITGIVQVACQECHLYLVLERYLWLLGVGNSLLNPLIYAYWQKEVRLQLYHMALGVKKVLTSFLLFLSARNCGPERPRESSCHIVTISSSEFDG

[2] = biological target: T2, Glucose-dependent insulinotropic receptor (Homo sapiens) (UniProt Q8TDV5); assay: […] of human GPR119 activity by homogeneous time resolved fluorescence cyclase (cAMP) assay relative to AR231453; type: functional
T2 sequence (whole entry): T1 sequence (Q8TDV5 whole entry)

[3] = biological target: T3, Glucose-dependent insulinotropic receptor (Rattus norvegicus, UniProt Q7TQN8); assay: […] of rat GPR119 activity by homogeneous time resolved fluorescence cyclase (cAMP) assay; type: functional
T3 sequence (Q7TQN8 whole entry): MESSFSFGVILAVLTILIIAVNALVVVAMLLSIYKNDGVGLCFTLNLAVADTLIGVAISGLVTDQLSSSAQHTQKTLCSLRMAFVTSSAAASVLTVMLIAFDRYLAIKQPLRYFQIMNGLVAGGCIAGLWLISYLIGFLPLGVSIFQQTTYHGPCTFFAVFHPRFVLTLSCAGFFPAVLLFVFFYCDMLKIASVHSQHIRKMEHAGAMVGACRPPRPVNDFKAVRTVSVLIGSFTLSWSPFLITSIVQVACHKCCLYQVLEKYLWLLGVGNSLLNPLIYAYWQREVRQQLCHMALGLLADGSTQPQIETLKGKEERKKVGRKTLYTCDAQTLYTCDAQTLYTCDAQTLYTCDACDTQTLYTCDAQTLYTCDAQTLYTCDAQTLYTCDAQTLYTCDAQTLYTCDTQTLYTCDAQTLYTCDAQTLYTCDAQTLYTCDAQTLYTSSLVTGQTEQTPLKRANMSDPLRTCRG

[4] = biological target: T4, Glucose-dependent insulinotropic receptor (Rattus norvegicus) (UniProt Q7TQN8); assay: […] of rat GPR119 activity by homogeneous time resolved fluorescence cyclase (cAMP) assay relative to AR231453; type: functional
T4 sequence (whole entry): T3 sequence (Q7TQN8 whole entry)

Cytochrome P450 2C9 = Cytochrome P450 2C9 (Homo sapiens, UniProt P11712); assay: Inhibition of CYP2C9 (unknown origin); type: ADME
Sequence of Cytochrome P450 2C9 (P11712 whole entry): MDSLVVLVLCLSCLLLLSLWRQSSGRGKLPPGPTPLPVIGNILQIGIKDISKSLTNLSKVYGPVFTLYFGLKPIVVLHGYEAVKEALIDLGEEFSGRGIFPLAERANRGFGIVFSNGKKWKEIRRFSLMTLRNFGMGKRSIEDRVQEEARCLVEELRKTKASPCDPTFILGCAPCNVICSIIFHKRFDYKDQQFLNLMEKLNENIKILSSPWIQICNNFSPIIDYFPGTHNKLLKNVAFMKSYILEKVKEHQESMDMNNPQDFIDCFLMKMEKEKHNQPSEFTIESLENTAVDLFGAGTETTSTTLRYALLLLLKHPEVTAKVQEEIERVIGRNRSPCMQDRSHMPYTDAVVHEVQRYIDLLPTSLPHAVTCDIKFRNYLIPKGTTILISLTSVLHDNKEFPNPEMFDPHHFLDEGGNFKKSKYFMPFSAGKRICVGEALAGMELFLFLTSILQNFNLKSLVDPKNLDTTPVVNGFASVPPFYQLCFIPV

SMILES | EC50 [1] [µM] | Efficacy [2] [%] | EC50 [3] [µM] | Efficacy [4] [%] | IC50 (Cytochrome P450 2C9) [µM]
CCc1cnc(C(=O)N2CCC(Oc3ncnc(Oc4ccc(S(C)(=O)=O)nc4C)c3F)CC2)nc1 | 0.0047 | 99 | 0.0408 | 80 | 
CCC(F)(F)C(=O)N1CCC(Oc2ncnc(Oc3ccc(S(C)(=O)=O)nc3C)c2F)CC1 | 0.0174 | 85 | 0.0692 | 90 | 
Cc1nc(S(C)(=O)=O)ccc1Oc1ncnc(OC2CCN(C(=O)c3nc(C(C)(C)F)no3)CC2)c1F | 0.0434 | 74 | 0.606 | 84 | 
Cc1nc(S(C)(=O)=O)ccc1Oc1ncnc(OC2CCN(C(=O)c3noc(C(C)C)n3)CC2)c1F | 0.0212 | 72 | 0.176 | 81 | 
Cc1nc(S(C)(=O)=O)ccc1Oc1ncnc(OC2CCN(C(=O)C(C)(F)F)CC2)c1F | 0.037 | 76 | 0.239 | 87 | 
Cc1nc(S(C)(=O)=O)ccc1Oc1ncnc(OC2CCN(C(=S)OC(C)C)CC2)c1F | 0.0699 | -32 | 1.05 | 47 | 
Cc1nc(S(C)(=O)=O)ccc1Oc1ncnc(OC2CCN(C(=O)OC(C)(C)C(F)(F)F)CC2)c1F | 0.00653 | 36 | 0.0472 | 79 | 
Cc1nc(S(C)(=O)=O)ccc1Oc1ncnc(OC2CCN(C(=O)c3ncc(Cl)cn3)CC2)c1F | 0.00612 | 83 | 0.0309 | 77 | 
Cc1nc(S(C)(=O)=O)ccc1Oc1ncnc(OC2CCN(C(=O)O[C@H](C)C(F)(F)F)CC2)c1F | 0.0092 | 56 | 0.11 | 85 | 
Cc1nc(S(C)(=O)=O)ccc1Oc1ncnc(OC2CCN(C(=O)SC(C)(C)C)CC2)c1F | 0.00483 | 87 | 0.0307 | 76 | 
Cc1nc(S(C)(=O)=O)ccc1Oc1ncnc(OC2CCN(C(=S)OC3(C)CC3)CC2)c1F |  |  | 0.0488 | 49 | 
Cc1nc(S(C)(=O)=O)ccc1Oc1ncnc(OC2CCN(C(=O)C(F)(F)F)CC2)c1F | 0.151 | 52 | 0.88 | 76 | 
Cc1nc(S(C)(=O)=O)ccc1Oc1ncnc(OC2CCN(C(=O)C(C)(C)F)CC2)c1F | 0.0763 | 66 | 0.296 | 74 | 
COc1c(Nc2ccc(S(C)(=O)=O)nc2C)ncnc1OC1CCN(C(=O)OC(C)C)CC1 [ADP-597] |  | 75 |  | 89 | 5.8
Cc1nc(S(C)(=O)=O)ccc1Oc1ncnc(OC2CCN(C(=O)OC3(C(F)(F)F)COC3)CC2)c1F | 0.0293 | 66 | 0.342 | 84 | 
Cc1nc(S(C)(=O)=O)ccc1Oc1ncnc(OC2CCN(C(=O)O[C@@H](C)C(F)(F)F)CC2)c1F | 0.00986 | 78 | 0.109 | 80 | 
Cc1nc(S(C)(=O)=O)ccc1Oc1ncnc(OC2CCN(C(=O)c3noc(C(C)(C)F)n3)CC2)c1F | 0.014 | 69 | 0.103 | 74 | 
Cc1nc(S(C)(=O)=O)ccc1Nc1ncnc(OC2CCN(C(=O)OC(C)C)CC2)c1F | 0.132 | 77 | 0.265 | 85 | 5.5
Cc1nc(S(C)(=O)=O)ccc1Oc1ncnc(OC2CCN(C(=O)SC(C)C)CC2)c1F | 0.0068 | 95 | 0.0413 | 81 | 

Second part, the molecule after the results:

EC50 [1] [µM] | Efficacy [2] [%] | EC50 [3] [µM] | Efficacy [4] [%] | IC50 (Cytochrome P450 2C9) [µM] | SMILES
0.0249 | 103 | 0.126 | 80 |  | Cc1nc(S(C)(=O)=O)ccc1Oc1ncnc(OC2CCN(C(=O)SC3CC3)CC2)c1F
0.186 | 72 | 1.68 | 84 |  | Cc1nc(S(C)(=O)=O)ccc1Oc1ncnc(OC2CCN(C(=O)O[C@@H](C)CF)CC2)c1F
0.326 | 58 | 2.5 | 66 |  | Cc1nc(S(C)(=O)=O)ccc1Oc1ncnc(OC2CCN(C(=O)OC3COC3)CC2)c1F
0.761 | 72 |  |  |  | Cc1nc(S(C)(=O)=O)ccc1Oc1ncnc(OC2CCN(C(=O)C3(C)CC3)CC2)c1F
0.0247 | 99 | 0.123 | 91 |  | Cc1nc(S(C)(=O)=O)ccc1Oc1ncnc(OC2CCN(C(=O)C3(F)CCC3)CC2)c1F
0.0929 | 90 | 1.32 | 97 |  | Cc1nc(S(C)(=O)=O)ccc1Oc1ncnc(OC2CCN(C(=O)OC(C)(C)C#N)CC2)c1F
0.0136 | 65 | 0.167 | 81 |  | Cc1nc(S(C)(=O)=O)ccc1Oc1ncnc(OC2CCN(C(=O)OC3CCC3)CC2)c1F
0.022 | 65 | 0.333 | 83 |  | CCC1(OC(=O)N2CCC(Oc3ncnc(Oc4ccc(S(C)(=O)=O)nc4C)c3F)CC2)CC1
0.0143 | 38 | 0.0633 | 82 |  | Cc1nc(S(C)(=O)=O)ccc1Oc1ncnc(OC2CCN(C(=O)OC3(C(F)(F)F)CCC3)CC2)c1F
0.00791 | 81 | 0.0496 | 97 |  | Cc1nc(S(C)(=O)=O)ccc1Oc1ncnc(OC2CCN(C(=O)OC(C)(C)C)CC2)c1F
0.196 | 59 | 1.52 | 79 |  | Cc1nc(S(C)(=O)=O)ccc1Oc1ncnc(OC2CCN(C(=O)O[C@H](C)CF)CC2)c1F
0.0132 | 93 | 0.166 | 77 |  | Cc1nc(S(C)(=O)=O)ccc1Oc1ncnc(OC2CCN(C(=O)SC3(C)CC3)CC2)c1F
0.0728 | 87 | 0.407 | 83 |  | Cc1nc(S(C)(=O)=O)ccc1Oc1ncnc(OC2CCN(C(=O)C3CCCC3)CC2)c1F
0.00851 | 94 | 0.0774 | 81 |  | Cc1nc(S(C)(=O)=O)ccc1Oc1ncnc(OC2CCN(C(=O)SC3CCC3)CC2)c1F
0.021 | 75 | 0.142 | 77 | > 50 | Cc1nc(S(C)(=O)=O)ccc1Oc1ncnc(OC2CCN(C(=O)OC(C)C)CC2)c1F
0.0199 | 74 | 0.138 | 95 |  | Cc1nc(S(C)(=O)=O)ccc1Oc1ncnc(OC2CCN(C(=O)OC(C)(C)CF)CC2)c1F
